PubChem BioAssay (NCI)
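Results reflect a 48-hour exposure of cells in 96-well plates to compound at five concentrations. TGI: total growth inhibition.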

Legend:
Experiment in all cases: NCI-60 cell line screen, 48 h
HOP-62 NSCLC = system: HOP-62 NSCLC
SF-268 CNS = system: SF-268 CNS
HT29 colon = system: HT29 colon
MCF7 breast = system: MCF7 breast
HOP-92 NSCLC = system: HOP-92 NSCLC
SW-620 colon = system: SW-620 colon
LOX IMVI melanoma = system: LOX IMVI melanoma
T-47D breast = system: T-47D breast
EKVX NSCLC = system: EKVX NSCLC
MDA-N = system: MDA-N
RPMI-8226 leukemia = system: RPMI-8226 leukemia
TK-10 renal = system: TK-10 renal
SNB-75 CNS = system: SNB-75 CNS
CAKI-1 renal = system: CAKI-1 renal
KM12 colon = system: KM12 colon
ACHN renal = system: ACHN renal
OVCAR-3 ovarian = system: OVCAR-3 ovarian
HS 578T breast = system: HS 578T breast
UACC-257 melanoma = system: UACC-257 melanoma
SF-539 CNS = system: SF-539 CNS
MDA-MB-435 = system: MDA-MB-435
RXF 393 renal = system: RXF 393 renal
OVCAR-5 ovarian = system: OVCAR-5 ovarian
HCT-15 colon = system: HCT-15 colon
NCI-H522 lung = system: NCI-H522 lung
HCT-116 colon = system: HCT-116 colon
A498 renal = system: A498 renal
MALME-3M melanoma = system: MALME-3M melanoma
U251 CNS = system: U251 CNS
SK-OV-3 ovarian = system: SK-OV-3 ovarian
SK-MEL-28 melanoma = system: SK-MEL-28 melanoma
SN12C renal = system: SN12C renal
SK-MEL-2 melanoma = system: SK-MEL-2 melanoma
NCI-H23 lung = system: NCI-H23 lung
NCI/ADR-RES ovarian = system: NCI/ADR-RES ovarian
SK-MEL-5 melanoma = system: SK-MEL-5 melanoma
K-562 leukemia = system: K-562 leukemia
UACC-62 melanoma = system: UACC-62 melanoma
SNB-19 CNS = system: SNB-19 CNS
IGROV1 ovarian = system: IGROV1 ovarian
MDA-MB-231 breast = system: MDA-MB-231 breast
BT-549 breast = system: BT-549 breast
SR leukemia = system: SR leukemia
MOLT-4 leukemia = system: MOLT-4 leukemia
A549 NSCLC = system: A549 NSCLC
M14 melanoma = system: M14 melanoma
786-0 renal = system: 786-0 renal
OVCAR-4 ovarian = system: OVCAR-4 ovarian
SF-295 CNS = system: SF-295 CNS
COLO 205 colon = system: COLO 205 colon
DU-145 prostate = system: DU-145 prostate
OVCAR-8 ovarian = system: OVCAR-8 ovarian
PC-3 prostate = system: PC-3 prostate
NCI-H226 lung = system: NCI-H226 lung
CCRF-CEM leukemia = system: CCRF-CEM leukemia
UO-31 renal = system: UO-31 renal
NCI-H460 lung = system: NCI-H460 lung
HCC-2998 colon = system: HCC-2998 colon
HL-60(TB) leukemia = system: HL-60(TB) leukemia

With `Cc1ncc(CSc2ccccc2N)c(CO)c1O` the TGI (HOP-62 NSCLC) was greater than 100 µM, the TGI (SF-268 CNS) was greater than 100 µM and the TGI (HT29 colon) was greater than 100 µM. The TGI (MCF7 breast) was greater than 100 µM, the TGI (HOP-92 NSCLC) was greater than 100 µM and the TGI (SW-620 colon) was greater than 100 µM. The TGI (LOX IMVI melanoma) was greater than 100 µM, the TGI (T-47D breast) was greater than 100 µM and the TGI (EKVX NSCLC) was greater than 100 µM. It also gave a TGI (MDA-N) greater than 100 µM, a TGI (RPMI-8226 leukemia) greater than 100 µM and a TGI (TK-10 renal) greater than 100 µM. For the same molecule, the TGI (SNB-75 CNS) was greater than 100 µM, the TGI (CAKI-1 renal) was greater than 100 µM and the TGI (KM12 colon) was greater than 100 µM. The TGI (ACHN renal) was greater than 100 µM, the TGI (OVCAR-3 ovarian) was greater than 100 µM and the TGI (HS 578T breast) was greater than 100 µM. For the same molecule, the TGI (UACC-257 melanoma) was greater than 100 µM, the TGI (SF-539 CNS) was greater than 100 µM and the TGI (MDA-MB-435) was greater than 100 µM. The TGI (RXF 393 renal) was greater than 100 µM, the TGI (OVCAR-5 ovarian) was greater than 100 µM and the TGI (HCT-15 colon) was greater than 100 µM. For the same molecule, the TGI (NCI-H522 lung) was greater than 100 µM, the TGI (HCT-116 colon) was greater than 100 µM and the TGI (A498 renal) was greater than 100 µM. It also gave a TGI (MALME-3M melanoma) greater than 100 µM, a TGI (U251 CNS) greater than 100 µM and a TGI (SK-OV-3 ovarian) greater than 100 µM. For the same molecule, the TGI (SK-MEL-28 melanoma) was greater than 100 µM, the TGI (SN12C renal) was greater than 100 µM and the TGI (SK-MEL-2 melanoma) was greater than 100 µM. The TGI (NCI-H23 lung) was greater than 100 µM, the TGI (NCI/ADR-RES ovarian) was greater than 100 µM and the TGI (SK-MEL-5 melanoma) was greater than 100 µM. For the same molecule, the TGI (K-562 leukemia) was greater than 100 µM, the TGI (UACC-62 melanoma) was greater than 100 µM and the TGI (SNB-19 CNS) was greater than 100 µM. The TGI (IGROV1 ovarian) was greater than 100 µM, the TGI (MDA-MB-231 breast) was greater than 100 µM and the TGI (BT-549 breast) was greater than 100 µM. It also gave a TGI (SR leukemia) greater than 100 µM, a TGI (MOLT-4 leukemia) greater than 100 µM and a TGI (A549 NSCLC) greater than 100 µM. For the same molecule, the TGI (M14 melanoma) was greater than 100 µM, the TGI (786-0 renal) was greater than 100 µM and the TGI (OVCAR-4 ovarian) was greater than 100 µM. It also gave a TGI (SF-295 CNS) greater than 100 µM, a TGI (COLO 205 colon) greater than 100 µM and a TGI (DU-145 prostate) greater than 100 µM. The TGI (OVCAR-8 ovarian) was greater than 100 µM, the TGI (PC-3 prostate) was greater than 100 µM and the TGI (NCI-H226 lung) was greater than 100 µM.

`CC1OC(OC2C(O)COC(OC3C(C)OC(OC4C(OC(=O)[C@]56CCC(C)(C)C[C@@H]5C5=CCC7[C@@]8(C)C[C@H](O)[C@H](OC9OC(CO)C(O)C(O)C9O)[C@@](C)(CO)[C@@H]8CC[C@@]7(C)[C@]5(C)CC6)OCC(O)C4O)C(O)C3OC3OCC(O)C(O)C3O)C2O)C(O)C(O)C1O` (stereo partly specified) showed a TGI (HOP-62 NSCLC) of 35.4 µM, a TGI (SF-268 CNS) of 47.5 µM and a TGI (MCF7 breast) of 43.8 µM. It also gave a TGI (HOP-92 NSCLC) of 44 µM, a TGI (SW-620 colon) of 32.2 µM and a TGI (LOX IMVI melanoma) of 37 µM. It also gave a TGI (T-47D breast) of 44.8 µM, a TGI (EKVX NSCLC) of 23.8 µM and a TGI (MDA-N) of 35.2 µM. It also gave a TGI (RPMI-8226 leukemia) greater than 100 µM, a TGI (TK-10 renal) of 33 µM and a TGI (SNB-75 CNS) of 41.1 µM. It also gave a TGI (CAKI-1 renal) of 26.8 µM, a TGI (KM12 colon) of 72.9 µM and a TGI (ACHN renal) of 36.1 µM. For the same molecule, the TGI (OVCAR-3 ovarian) was 37.9 µM, the TGI (HS 578T breast) was 63.9 µM and the TGI (UACC-257 melanoma) was 31.7 µM. For the same molecule, the TGI (SF-539 CNS) was 36.3 µM, the TGI (MDA-MB-435) was 44.8 µM and the TGI (RXF 393 renal) was 34.1 µM. The TGI (OVCAR-5 ovarian) was 30.2 µM, the TGI (CCRF-CEM leukemia) was 34.9 µM and the TGI (HCT-15 colon) was 51.4 µM. For the same molecule, the TGI (NCI-H522 lung) was 62.4 µM, the TGI (HCT-116 colon) was 38.5 µM and the TGI (A498 renal) was 32.7 µM. For the same molecule, the TGI (MALME-3M melanoma) was 54.7 µM, the TGI (U251 CNS) was 39.1 µM and the TGI (SK-OV-3 ovarian) was 34.7 µM. It also gave a TGI (SK-MEL-28 melanoma) of 25.9 µM, a TGI (UO-31 renal) of 17.6 µM and a TGI (SN12C renal) of 35 µM. It also gave a TGI (SK-MEL-2 melanoma) of 37.9 µM, a TGI (NCI-H23 lung) of 40.8 µM and a TGI (NCI/ADR-RES ovarian) of 46 µM. The TGI (SK-MEL-5 melanoma) was 36.2 µM, the TGI (K-562 leukemia) was greater than 100 µM and the TGI (UACC-62 melanoma) was 41.1 µM. The TGI (SNB-19 CNS) was 33.7 µM, the TGI (MDA-MB-231 breast) was 31 µM and the TGI (BT-549 breast) was 52.6 µM. For the same molecule, the TGI (SR leukemia) was 46.1 µM, the TGI (MOLT-4 leukemia) was 46 µM and the TGI (A549 NSCLC) was 28.2 µM. For the same molecule, the TGI (M14 melanoma) was 23.2 µM, the TGI (NCI-H460 lung) was 41.6 µM and the TGI (786-0 renal) was 29.2 µM. It also gave a TGI (OVCAR-4 ovarian) of 48.8 µM, a TGI (SF-295 CNS) of 39.2 µM and a TGI (COLO 205 colon) of 19.3 µM. For the same molecule, the TGI (DU-145 prostate) was 36.2 µM, the TGI (OVCAR-8 ovarian) was 37.3 µM and the TGI (PC-3 prostate) was 29.5 µM. It also gave a TGI (NCI-H226 lung) of 46.1 µM and a TGI (HCC-2998 colon) of 33.9 µM.

`NCCN1C(=O)c2cc(Cl)c(Cl)cc2C1(O)c1ccc(Cl)cc1` (stereo unspecified) gave a TGI (HOP-62 NSCLC) of 4.21 µM, a TGI (SF-268 CNS) of 6.65 µM and a TGI (HT29 colon) of 3.81 µM. For the same molecule, the TGI (MCF7 breast) was 3.73 µM, the TGI (HOP-92 NSCLC) was 12.5 µM and the TGI (SW-620 colon) was 3.7 µM. It also gave a TGI (LOX IMVI melanoma) of 3.28 µM, a TGI (T-47D breast) of 4.55 µM and a TGI (EKVX NSCLC) of 6.75 µM. For the same molecule, the TGI (MDA-N) was 3.47 µM, the TGI (RPMI-8226 leukemia) was 5.39 µM and the TGI (TK-10 renal) was 3.53 µM. The TGI (SNB-75 CNS) was 8.26 µM, the TGI (CAKI-1 renal) was 7.02 µM and the TGI (KM12 colon) was 4.17 µM. For the same molecule, the TGI (ACHN renal) was 4.75 µM, the TGI (OVCAR-3 ovarian) was 4.74 µM and the TGI (HS 578T breast) was 8.44 µM. For the same molecule, the TGI (UACC-257 melanoma) was 3.47 µM, the TGI (SF-539 CNS) was 3.1 µM and the TGI (MDA-MB-435) was 3.13 µM. For the same molecule, the TGI (RXF 393 renal) was 3.06 µM, the TGI (OVCAR-5 ovarian) was 12.2 µM and the TGI (CCRF-CEM leukemia) was 10.1 µM. The TGI (HCT-15 colon) was 5.33 µM, the TGI (HCT-116 colon) was 3.09 µM and the TGI (A498 renal) was 10.2 µM. The TGI (MALME-3M melanoma) was 3.49 µM, the TGI (U251 CNS) was 3.17 µM and the TGI (SK-OV-3 ovarian) was 26.3 µM. For the same molecule, the TGI (SK-MEL-28 melanoma) was 3.21 µM, the TGI (UO-31 renal) was 17.2 µM and the TGI (SN12C renal) was 13.4 µM. It also gave a TGI (SK-MEL-2 melanoma) of 3.63 µM, a TGI (NCI-H23 lung) of 6.78 µM and a TGI (NCI/ADR-RES ovarian) of 7.25 µM. The TGI (SK-MEL-5 melanoma) was 2.99 µM, the TGI (K-562 leukemia) was 4.09 µM and the TGI (HL-60(TB) leukemia) was 3.44 µM. For the same molecule, the TGI (UACC-62 melanoma) was 3.25 µM, the TGI (SNB-19 CNS) was 7.73 µM and the TGI (IGROV1 ovarian) was 4.89 µM. It also gave a TGI (MDA-MB-231 breast) of 3.75 µM, a TGI (BT-549 breast) of 13.4 µM and a TGI (SR leukemia) of 3.96 µM. It also gave a TGI (MOLT-4 leukemia) of 5.28 µM, a TGI (A549 NSCLC) of 4.76 µM and a TGI (M14 melanoma) of 3.23 µM. It also gave a TGI (NCI-H460 lung) of 3.64 µM, a TGI (786-0 renal) of 2.96 µM and a TGI (OVCAR-4 ovarian) of 4.24 µM. It also gave a TGI (SF-295 CNS) of 3.9 µM, a TGI (COLO 205 colon) of 3.02 µM and a TGI (DU-145 prostate) of 6.81 µM. For the same molecule, the TGI (OVCAR-8 ovarian) was 3.92 µM and the TGI (PC-3 prostate) was 19.3 µM.
